Source: US20130096067A1, “DROSOPHILA TUMOR STEM CELL MODEL AND USES THEREOF” (priority 2011, published 2013)
Square brackets hold non-standard residues; d marks the D form. Peptide text beside a SMILES is read from it. Phe(ol) = N[C@H](CO)Cc1ccccc1; Aib = CC(C)(N)C(=O)O

Tested on: Raf-1^gof intestinal tumors
Conditions: for Log2 (fold) of luciferase activity relative to DMSO controls / Fold (luciferase activity relative to DMSO controls): ICCB compounds fed in vials to flies with one-day old Raf-1^gof tumors; for Log2 (fold) of luciferase activity relative to DMSO controls / Fold (luciferase activity relative to DMSO controls) / Log2 (fold) (luciferase activity, log2 of the fold difference relative to DMSO controls) / Fold (luciferase activity, fold difference relative to DMSO controls): assessed three days later; for Fold (luciferase activity relative to DMSO controls) / Fold (luciferase activity, fold difference relative to DMSO controls): averaged from multiple wells; for Log2 (fold) (luciferase activity, log2 of the fold difference relative to DMSO controls) / Fold (luciferase activity, fold difference relative to DMSO controls): screen of 480 ICCB compounds in vials, compounds fed to flies with one-day old Raf-1^gof tumors, esg-Gal4 luciferase; for Fold: Table 3 summary of hits, Screen ICCB, luciferase relative to DMSO, fed three consecutive days in vials
For Fold (luciferase activity relative to DMSO controls) in this document: test concentration or dose not given here.
For Fold (luciferase activity, fold difference relative to DMSO controls) in this document: test concentration or dose not given here.
For Log2 (fold) (luciferase activity, log2 of the fold difference relative to DMSO controls) in this document: test concentration or dose not given here.
For Log2 (fold) of luciferase activity relative to DMSO controls in this document: test concentration or dose not given here.

COc1ccc2c(c1)c(CC(=O)N1CCOCC1)c(C)n2C(=O)c1ccc(Cl)cc1 [BML-190]
Log2 (fold) of luciferase activity relative to DMSO controls: −0.202 | Fold (luciferase activity relative to DMSO controls): 0.869 fold

CC(C)n1cnc2c(NCc3ccccc3)nc(NCCO)nc21 [N9-Isopropylolomoucine]
Log2 (fold) (luciferase activity, log2 of the fold difference relative to DMSO controls): −0.490 | Fold (luciferase activity, fold difference relative to DMSO controls): 0.712

CCCCC/C=C\C/C=C\C/C=C\C/C=C\CCCC(=O)OC(CO)COCCCCCCCCCCCCCCCC (stereo not shown) [1-HEXADECYL-2-ARACHIDONOYL-GLYCEROL]
Log2 (fold) (luciferase activity, log2 of the fold difference relative to DMSO controls): −0.379 | Fold (luciferase activity, fold difference relative to DMSO controls): 0.769

Clc1ccc(-c2nc3sccn3c2/C=N/OCc2ccc(Cl)c(Cl)c2)cc1 [CITCO]
Log2 (fold) of luciferase activity relative to DMSO controls: −0.162 | Fold (luciferase activity relative to DMSO controls): 0.894 fold

CCCCCCCCCCCCCCCC(=O)NCCO [PALMITYLETHANOLAMIDE]
Log2 (fold) (luciferase activity, log2 of the fold difference relative to DMSO controls): −0.486 | Fold (luciferase activity, fold difference relative to DMSO controls): 0.714

CC1=C(C)C(=O)C(CCCCC#CCCCC#CCO)=C(C)C1=O [AA-861]
Log2 (fold) (luciferase activity, log2 of the fold difference relative to DMSO controls): −0.444 | Fold (luciferase activity, fold difference relative to DMSO controls): 0.735

CC1=C(CC/C(C)=C/CCC2=CC[C@H](C3=CC(=O)O[C@H]3O)O[C@H]2O)C(C)(C)CCC1 [Manoalide]
Log2 (fold) (luciferase activity, log2 of the fold difference relative to DMSO controls): −0.490 | Fold (luciferase activity, fold difference relative to DMSO controls): 0.712

C[C@H]1CCC/C=C/[C@@H]2C[C@H](O)C[C@H]2[C@H](O)/C=C/C(=O)O1 [brefeldin A]
Log2 (fold) (luciferase activity, log2 of the fold difference relative to DMSO controls): −0.422 | Fold (luciferase activity, fold difference relative to DMSO controls): 0.746

ICRF-193 [reference compound]
Fold: 0.364 fold | Log2 (fold) (luciferase activity, log2 of the fold difference relative to DMSO controls): −1.459 | Fold (luciferase activity, fold difference relative to DMSO controls): 0.364

CC(C)C[C@H](NC(=O)[C@@H](O)[C@H](N)Cc1ccccc1)C(=O)O [Bestatin]
Log2 (fold) (luciferase activity, log2 of the fold difference relative to DMSO controls): −0.688 | Fold (luciferase activity, fold difference relative to DMSO controls): 0.621

CN(CCc1ccc(Cl)c(Cl)c1)CC(O)COc1ccc(NS(C)(=O)=O)cc1 (stereo not shown) [AM 92016]
Log2 (fold) (luciferase activity, log2 of the fold difference relative to DMSO controls): −0.341 | Fold (luciferase activity, fold difference relative to DMSO controls): 0.789

COc1ccc([C@H]2Sc3ccccc3N(CCN(C)C)C(=O)[C@H]2OC(C)=O)cc1 [L-cis-DILTIAZEM]
Log2 (fold) of luciferase activity relative to DMSO controls: 0.137 | Fold (luciferase activity relative to DMSO controls): 1.100 fold

CC(C)(C)c1cc(O)c(C(C)(C)C)cc1O [2,5-ditertbutylhydroquinone]
Log2 (fold) (luciferase activity, log2 of the fold difference relative to DMSO controls): −0.293 | Fold (luciferase activity, fold difference relative to DMSO controls): 0.816

CCCOc1ccccc1-c1nc2nn[nH]c2c(=O)[nH]1 [zaprinast]
Log2 (fold) of luciferase activity relative to DMSO controls: −0.055 | Fold (luciferase activity relative to DMSO controls): 0.962 fold

CCOC(=O)C1=C[C@]2(CC)CCCN3CCc4c(n1c1ccccc41)[C@@H]32 [vinpocetine]
Log2 (fold) of luciferase activity relative to DMSO controls: 0.280 | Fold (luciferase activity relative to DMSO controls): 1.214 fold

N#C/C(=C\c1cc(Cl)cc(Cl)c1)c1cccnc1 [RG-14620]
Log2 (fold) (luciferase activity, log2 of the fold difference relative to DMSO controls): −0.483 | Fold (luciferase activity, fold difference relative to DMSO controls): 0.715

O=C(O)CN1C(=O)c2cccc3cccc(c23)C1=O [Alrestatin]
Log2 (fold) (luciferase activity, log2 of the fold difference relative to DMSO controls): −0.320 | Fold (luciferase activity, fold difference relative to DMSO controls): 0.801

NC(=NC(=O)c1nc(Cl)c(N)nc1N)NCc1ccc(Cl)c(Cl)c1 [DICHLOROBENZAMIL]
Log2 (fold) of luciferase activity relative to DMSO controls: −0.116 | Fold (luciferase activity relative to DMSO controls): 0.923 fold

KN-62
Log2 (fold) (luciferase activity, log2 of the fold difference relative to DMSO controls): −0.513 | Fold (luciferase activity, fold difference relative to DMSO controls): 0.701

CC[C@@H]1/C=C/C=C/C[C@H](C)[C@H](O)[C@](C)(O)C(=O)[C@H](C)[C@@H](O)[C@H](C)C(=O)[C@H](C)[C@@H](O)[C@H](C)/C=C/C(=O)O[C@H]2[C@@H](C)[C@@H](CC1)O[C@@]1(CC[C@@H](C)[C@@H](C[C@H](C)O)O1)[C@@H]2C [oligomycin A, reference compound]
Fold: 0.457 fold | Log2 (fold) (luciferase activity, log2 of the fold difference relative to DMSO controls): −1.131 | Fold (luciferase activity, fold difference relative to DMSO controls): 0.457

FC(F)(F)c1ccccc1-n1ccnc1 [TRIM]
Log2 (fold) of luciferase activity relative to DMSO controls: −0.160 | Fold (luciferase activity relative to DMSO controls): 0.895 fold

CC(C)[C@@H]1NC(=O)[C@H](C)OC(=O)[C@@H](C(C)C)NC(=O)[C@@H](C(C)C)OC(=O)[C@H](C(C)C)NC(=O)[C@H](C)OC(=O)[C@@H](C(C)C)NC(=O)[C@@H](C(C)C)OC(=O)[C@H](C(C)C)NC(=O)[C@H](C)OC(=O)[C@@H](C(C)C)NC(=O)[C@@H](C(C)C)OC1=O [valinomycin]
Log2 (fold) (luciferase activity, log2 of the fold difference relative to DMSO controls): −0.408 | Fold (luciferase activity, fold difference relative to DMSO controls): 0.754

CCCC[C@@H](C)/C=C(C)/C=C(\C)C(=O)NC1=C[C@@](O)(/C=C/C=C/C=C/C(=O)NC2=C(O)CCC2=O)[C@@H]2O[C@@H]2C1=O [manumycin A]
Log2 (fold) (luciferase activity, log2 of the fold difference relative to DMSO controls): −0.233 | Fold (luciferase activity, fold difference relative to DMSO controls): 0.851

CN1CCN(CCCN2c3ccccc3Sc3ccc(C(F)(F)F)cc32)CC1 [trifluoperazine]
Log2 (fold) of luciferase activity relative to DMSO controls: −0.206 | Fold (luciferase activity relative to DMSO controls): 0.867 fold

CC(=O)NC(C)(C)C(=O)N1CCC[C@H]1C(=O)NC(C)(C)C(=O)N[C@@H](C)C(=O)NC(C)(C)C(=O)N[C@@H](C)C(=O)N[C@@H](CCC(N)=O)C(=O)NC(C)(C)C(=O)N[C@H](C(=O)NC(C)(C)C(=O)NCC(=O)N[C@@H](CC(C)C)C(=O)NC(C)(C)C(=O)N1CCC[C@H]1C(=O)N[C@H](C(=O)NC(C)(C)C(=O)NC(C)(C)C(=O)N[C@@H](CCC(=O)O)C(=O)N[C@@H](CCC(N)=O)C(=O)N[C@H](CO)Cc1ccccc1)C(C)C)C(C)C [alamethicin, reference compound] (Ac-[Aib]P[Aib]A[Aib]AQ[Aib]V[Aib]GL[Aib]PV[Aib][Aib]EQ[Phe(ol)])
Fold: 0.445 fold | Log2 (fold) (luciferase activity, log2 of the fold difference relative to DMSO controls): −1.167 | Fold (luciferase activity, fold difference relative to DMSO controls): 0.445

COC[C@@H]([C@H](O)[C@H](O)C(=O)NCC[C@H](C)c1nc(/C=C/C[C@@H]2O[C@]3(C[C@@H](O)[C@@H]2C)O[C@H]([C@H](C[C@H](O)[C@H](C)[C@H](O)[C@H](C)/C=C(C)/C(C)=C/C=C/C(C)=C\C#N)OC)[C@H](OP(=O)(O)O)C3(C)C)co1)N(C)C [calyculin A, reference compound]
Fold: 0.413 fold | Log2 (fold) (luciferase activity, log2 of the fold difference relative to DMSO controls): −1.276 | Fold (luciferase activity, fold difference relative to DMSO controls): 0.413

O=C(O)CCC/C=C\C[C@@H]1[C@H](CNNC(=O)Nc2ccccc2)[C@H]2CC[C@@H]1O2 [SQ-29548]
Log2 (fold) (luciferase activity, log2 of the fold difference relative to DMSO controls): −0.606 | Fold (luciferase activity, fold difference relative to DMSO controls): 0.657

CC(=O)[C@H]1[C@H](C#N)C[C@H]2[C@@H]3CC=C4C[C@@H](O)CC[C@]4(C)[C@H]3CC[C@@]21C [Pregnenolone 16alpha carbonitrile]
Log2 (fold) (luciferase activity, log2 of the fold difference relative to DMSO controls): −0.492 | Fold (luciferase activity, fold difference relative to DMSO controls): 0.711

CC(COc1ccccc1)N(CCCl)Cc1ccccc1 (stereo not shown) [Phenoxybenzamine]
Log2 (fold) (luciferase activity, log2 of the fold difference relative to DMSO controls): −0.600 | Fold (luciferase activity, fold difference relative to DMSO controls): 0.660

Cc1ccc(NC(=O)c2cccc(N(C)C)c2)cc1NC(=O)c1ccc(O)cc1 [ZM336372]
Log2 (fold) (luciferase activity, log2 of the fold difference relative to DMSO controls): −0.338 | Fold (luciferase activity, fold difference relative to DMSO controls): 0.791

CCOc1ccc(-c2nc3ccc(-c4nc5ccc(N6CCN(C)CC6)cc5[nH]4)cc3[nH]2)cc1
Log2 (fold) (luciferase activity, log2 of the fold difference relative to DMSO controls): −0.592 | Fold (luciferase activity, fold difference relative to DMSO controls): 0.663

CC(C)c1cccc(=O)c(O)c1 [Hinokitiol]
Log2 (fold) (luciferase activity, log2 of the fold difference relative to DMSO controls): −0.240 | Fold (luciferase activity, fold difference relative to DMSO controls): 0.847

OC[C@H]1O[C@@H](n2cnc3cc(Cl)c(Cl)cc32)[C@H](O)[C@@H]1O [DRB]
Log2 (fold) (luciferase activity, log2 of the fold difference relative to DMSO controls): −0.246 | Fold (luciferase activity, fold difference relative to DMSO controls): 0.843

CO/C1=C\C(C)=C\[C@@H](C)[C@@H](O)[C@@H](C)C/C(C)=C/C=C/[C@H](OC)[C@@H]([C@@H](C)[C@@H](O)[C@H](C)[C@@]2(O)C[C@@H](O)[C@H](C)[C@@H](C(C)C)O2)OC1=O [bafilomycin A1]
Log2 (fold) (luciferase activity, log2 of the fold difference relative to DMSO controls): −0.234 | Fold (luciferase activity, fold difference relative to DMSO controls): 0.850

CC1(COc2ccc(CC3SC(=O)NC3=O)cc2)CCCCC1 (stereo not shown) [CIGLITAZONE]
Log2 (fold) of luciferase activity relative to DMSO controls: 0.038 | Fold (luciferase activity relative to DMSO controls): 1.027 fold

C[C@]12C=CC(=O)C=C1CC[C@@H]1C2=CC[C@]2(C)[C@@H](C(=O)CN3CCN(c4cc(N5CCCC5)nc(N5CCCC5)n4)CC3)CC[C@@H]12.O=C(O)/C=C\C(=O)O [U-74389G]
Log2 (fold) (luciferase activity, log2 of the fold difference relative to DMSO controls): −0.462 | Fold (luciferase activity, fold difference relative to DMSO controls): 0.726

CC(=O)N[C@@H](CSC/C=C(\C)CCC=C(C)C)C(=O)O [AGC]
Log2 (fold) (luciferase activity, log2 of the fold difference relative to DMSO controls): −0.508 | Fold (luciferase activity, fold difference relative to DMSO controls): 0.703

CCCCC[C@H](O)/C=C/C=C\C=C\C=C\[C@@H](O)[C@@H](O)CCCC(=O)O [LIPOXIN A4]
Log2 (fold) of luciferase activity relative to DMSO controls: 0.046 | Fold (luciferase activity relative to DMSO controls): 1.033 fold

CCCCCCCC/C=C\C/C=C\C/C=C\CCCC(=O)NCCO [MEAD ETHANOLAMIDE]
Log2 (fold) (luciferase activity, log2 of the fold difference relative to DMSO controls): −0.322 | Fold (luciferase activity, fold difference relative to DMSO controls): 0.800
